What was measured:
Assay in all cases: UPLC-high resolution MS of intact protein
Format in all cases: binding
Settings in all cases: covalent; 2 uM enzyme, 50 uM drug, 25 mM Tris pH 8.0, 5 h, 20 °C
LdtF = molecular target: T1, LdtF (Mycolicibacterium smegmatis, UniProt A0QS24)
T1 sequence (A0QS24 31-420): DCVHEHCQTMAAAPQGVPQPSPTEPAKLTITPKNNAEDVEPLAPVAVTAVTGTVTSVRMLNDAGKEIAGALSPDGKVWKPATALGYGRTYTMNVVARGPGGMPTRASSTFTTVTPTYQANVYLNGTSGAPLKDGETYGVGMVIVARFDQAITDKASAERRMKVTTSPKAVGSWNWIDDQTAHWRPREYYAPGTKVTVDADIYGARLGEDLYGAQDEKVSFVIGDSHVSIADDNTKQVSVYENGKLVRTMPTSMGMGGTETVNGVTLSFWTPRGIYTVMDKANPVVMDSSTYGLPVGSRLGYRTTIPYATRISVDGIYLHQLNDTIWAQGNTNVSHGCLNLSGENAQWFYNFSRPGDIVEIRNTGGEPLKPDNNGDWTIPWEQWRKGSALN

LdtB = molecular target: T2, LdtB (Mycolicibacterium smegmatis, UniProt A0R1G6)
T2 sequence (A0R1G6 27-400): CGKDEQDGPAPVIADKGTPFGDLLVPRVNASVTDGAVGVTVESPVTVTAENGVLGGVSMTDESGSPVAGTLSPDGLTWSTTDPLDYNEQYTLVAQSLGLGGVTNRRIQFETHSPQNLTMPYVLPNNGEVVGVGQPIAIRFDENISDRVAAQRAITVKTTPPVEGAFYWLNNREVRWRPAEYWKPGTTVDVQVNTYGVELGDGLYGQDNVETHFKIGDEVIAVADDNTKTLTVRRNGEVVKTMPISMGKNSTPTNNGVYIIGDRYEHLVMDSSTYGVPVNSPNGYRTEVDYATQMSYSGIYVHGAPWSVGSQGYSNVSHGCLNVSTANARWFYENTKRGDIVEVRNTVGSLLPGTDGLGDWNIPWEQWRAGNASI

LdtA = molecular target: T3, LdtA (Mycolicibacterium smegmatis, UniProt A0QY44)
T3 sequence (A0QY44 41-259): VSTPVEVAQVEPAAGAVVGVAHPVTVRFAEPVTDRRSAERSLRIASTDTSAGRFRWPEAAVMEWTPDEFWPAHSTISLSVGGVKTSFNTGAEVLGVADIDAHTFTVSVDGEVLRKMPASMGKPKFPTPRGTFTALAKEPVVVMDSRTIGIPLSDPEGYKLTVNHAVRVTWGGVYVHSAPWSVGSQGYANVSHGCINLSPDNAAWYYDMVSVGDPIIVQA

Structure (SMILES)	UPLC-high resolution MS of intact protein (LdtF)	UPLC-high resolution MS of intact protein (LdtB)	UPLC-high resolution MS of intact protein (LdtA)
C[C@@H](O)[C@H]1C(=O)N2C(C(=O)O)=C([C@H]3CCCO3)S[C@H]12 [faropenem]	small amounts of apo-LdtF remained following incubation with biapenem, doripenem, and faropenem	fully acylated by the (carba)penems faropenem, biapenem, doripenem, and meropenem	fully acylated by the (carba)penems faropenem, biapenem, doripenem, and meropenem
C[C@@H](O)[C@H]1C(=O)N2C(C(=O)[O-])=C(SC3Cn4cnc[n+]4C3)[C@H](C)[C@H]12 (stereo partly shown) [biapenem]	small amounts of apo-LdtF remained following incubation with biapenem, doripenem, and faropenem	fully acylated by the (carba)penems faropenem, biapenem, doripenem, and meropenem	fully acylated by the (carba)penems faropenem, biapenem, doripenem, and meropenem
C[C@@H](O)[C@H]1C(=O)N2C(C(=O)O)=C(S[C@@H]3CN[C@H](CNS(N)(=O)=O)C3)[C@H](C)[C@H]12 [doripenem]	small amounts of apo-LdtF remained following incubation with biapenem, doripenem, and faropenem		
C[C@@H](O)[C@H]1C(=O)N2C(C(=O)O)=C(S[C@@H]3CN[C@H](C(=O)N(C)C)C3)[C@H](C)[C@H]12 [meropenem]	only meropenem completely acylates LdtF under the same conditions	fully acylated by the (carba)penems faropenem, biapenem, doripenem, and meropenem	fully acylated by the (carba)penems faropenem, biapenem, doripenem, and meropenem
